“Also recorded” adds a separate entry of the source.
Key:
[1] = test system: RT2 rat astrocytoma cell line; experiment: Boyden chamber invasion assay at 48 hours; type: cell-based; details: RT2 cells, 0.01-5 μg/ml
Procedure: FIG. 1b is a bar graph showing the dose dependent effects of IB on invasion using a Boyden Chamber Assay. […] At concentrations above 20 μg/ml, IB was cytotoxic to cancer, and not just anti-invasive.
(§1) An aggressive rat astrocytoma cell line, RT2, was maintained in vitro. This cell line was used to test 24 compounds at varying concentrations in cytotoxicity and proliferation assays using CCK8 (Dojindo), a tetrazolium salt based assay. Compounds without detrimental effects on viability and growth were tested using the Boyden chamber invasion assay at 48 hours. Compounds were also tested for viability against astrocyte cultures using CCK8. Of these compounds, several were identified as anti-invasive. However, several compounds were toxic to astrocytes in culture and several were cytotoxic and not in fact anti-invasive.
It also is benign to astrocyte co-culture making it safer for delivery to the brain (FIG. 3a). The compound is blue in color with an absorbance at 610 nm making it easily assayable. […] At concentrations above 20 μg/ml, IB was cytotoxic to cancer and not just anti-invasive.

[2] = test system: RT2 rat astrocytoma cell line; experiment: Cytotoxicity and proliferation assays using CCK8; type: cell-based
Procedure: (§2) FIG. 1a is a bar graph showing the effects of IB on cell growth in vitro, in terms of normalized cell viability.
as §1

[3] = test system: astrocytes; experiment: Viability against astrocyte cultures using CCK8; type: cell-based; details: CCK8, 5 μg/ml
Procedure: as §2, §1

[4] = test system: glioma cells; experiment: Invasion assay at 24 hours, encapsulated versus free drug; type: cell-based
Procedure: FIG. 4 is a chart showing the results of an invasion assay at 24 hours, showing invasion (%) over time (24 hours).
An invasion assay was performed at 24 hours. The encapsulated formulation was compared to tree drug in vitro and was still active as an anti-invasive agent. Encapsulation of the compound in liposomes is reproducible and consistent between batched.

[5] = Pharmacokinetics of free versus liposomal IB (Example 3); type: in vivo; details: rat, tail vein, 20 mg/kg, Cremaphor formulation
Procedure: FIG. 5 is a chart showing the pharmacokinetics of free versus encapsulated imipramine blue, in terms of plasma concentration (mg/ml) over time (hours).
Animals were injected via tail vein with 20 mg/kg liposomal or free IB. Orbital blood draws were performed at intervals and blood collected, centrifuged, and serum read at 610 nm absorbance for pharmacokinetics. […] For biodistribution, animals were perfused with saline, organs collected, homogenized, and drug extracted with DMSO and read at 610 nm absorbance.
The circulation time of the free imipramine blue was tested in a Cremaphor formulation similar to that of paclitaxel.

[6] = Plasma clearance of free IB versus Nano-IB (Example 6); type: in vivo, rat; details: non tumor-bearing adult male rats, tail vein, readings over 1 hour
Procedure: Imipramine Blue liposomes were injected via the tail vein into adult male rats (non tumor-bearing). Blood samples were taken via the orbital cavity at different time points after drug administration, plasma separated and analyzed for IB content via absorbance readings on spectrophotometer.

[7] = test system: RT2 glioma cells; experiment: Actin staining of IB-treated glioma cells; type: cell-based, rat; details: 24 hours, versus ethanol
Procedure: FIGS. 9A and 9B are photomicrographs showing the results of in vitro treatment of RT2 glioma cells with IB. Cells were treated with ethanol […] or IB […] and stained for actin (red) and nuclei (blue).
The ability of IB to impact invasion capability of glioma cells was tested further in vitro. Cells were treated for 24 hours with either IB dissolved in ethanol or an equivalent volume of ethanol.

[8] = test system: HIF2a; details: WM35 PKB cells, 5 micromolar, 24 hours; cited from earlier work

## CCN(CC)c1ccc(C(c2ccc(N(CC)CC)cc2)=c2ccc3c(c2)CCc2ccccc2[N+]=3CCCN(C)C)cc1 [IB, Imipramine Blue]
[1]
  anti-invasive effect: highest anti-invasive properties; also recorded: dose-dependent anti-invasive response
[2]
  concentration at which IB is cytotoxic to cancer: above 20 μg/ml
[2]; CCK8
  proliferation of RT2 cells: not antiproliferative; also recorded: not particularly cytotoxic or anti-proliferative
[2]; CCK8, at anti-invasive concentrations
  cytotoxicity to RT2 cells: not particularly cytotoxic
[3]
  effect on astrocyte culture: benign
[4]
  invasion relative to control (100 percent): around 60%
[5]
  half-life of free IB: 11 min
[5]; listed as free imipramine blue
  half-life of free IB: around 11 minutes
[6]
  half-life of free IB: 12 min
[7]
  effect on cytoskeleton: alters the arrangement of the cytoskeleton
[8]
  inhibition of HIF2a expression: around 90%
